The test in a line: Air pollutant specificity. Particulars: acid 250 μM, metal 100 nM, 30 minutes at 37° C. On the procedure: FIG. 3B illustrates Ozone specificity against other air pollutants: Sample A=no additive, Sample B=ozone, Sample C=HNO3, Sample D=H2SO4, Sample E=Pb, Sample F=Pd, Sample G=Pt. [Acid]=250 μM. [Metal]=100 nM. The acid samples were incubated in 5:95 MeOH/pure water for 30 minutes at 37° C. The metal samples were incubated in 5:95 MeOH/pH 7 buffer for 30 minutes at 37° C.
A number of other pollutants were screened to ensure that ozone was selectively detected. Nitrogen dioxide and sulfur dioxide convert to their corresponding acids in aqueous solution so nitric acid and sulfuric acid were screened. Lead, palladium and platinum, which are known pollutants emitted from automobiles, were also screened. […]
Acids: HNO3 or H2SO4 (10 μL of 0.1 M solution; [acid]final=250 μM) and solution A (5.0 μL, [compound 4]final=12.5 μM) were added to a mixture of MeOH/pure water solution (5:95) (4.0 mL), and the samples were incubated at 37° C. for 30 minutes before fluorescence measurement. […]
Metals: Pb, Pd or Pt solution (40 μL of 10 μM solution; [Metal]final=100 nM) and solution A (5.0 μL, [compound 4]final=12.5 μM) were added to a mixture of MeOH/pH 7 buffer ([PO4^3−]=5 mM) (5:95) (4.0 mL), and the samples were incubated at 37° C. for 30 minutes before fluorescence measurement. […]

Take `C=CCCOc1cc2oc3cc(=O)c(Cl)cc-3c(-c3ccccc3CO)c2cc1Cl` [compound 4]: the “fluorescent signal with other air pollutants (species C-G)” value is recorded as “none of these species C-G produced a fluorescent signal”.

The values above are taken from patent publication US8361802B2, “Fluorescent ozone sensor” (University of Pittsburgh—Of the Commonwealth System of …, priority 2009, dated 2013).
